One data set has as its system THP-1 cells. Put plainly: CCK-8 cell proliferation assay, THP-1. Type of data set: cell-based. The note with it: 10 μM GSK126 for 24 h and 48 h. The procedure: (§1) FIG. 1: Hematological tumors are more sensitive to GSK126 than solid tumors. (A) Proliferation of B16F10, Huh7 and SMMC7721 cells in GSK126 (10-20 μM) treatment was monitored by Incucyte S3 with 6 replicates per group; (B) Viabilities of Daudi and THP-1cells after GSK126 (200 nM to 24 μM) treatment for 24 h and 48 h were measured by CCK-8 assay with 5 replicates per group; (C) Western blot (WB) analysis on B16F10 cells after 48 h without or with GSK126 treatment (6 μM, and 12 μM), with H3 used as an internal reference for histone. 5 to 6 replicates were established for each group, with *P<0.05, **P<0.01, and ***P<0.001, and ns for no statistical difference.
In general terms: Tetrazolium dyes change colour on reduction, which living cells bring about.

Data set [1] deals with melanoma B16F10 cells. Put plainly: Fatty acid metabolite levels in B16F10 cells. Type of data set: cell-based. The note with it: GSK126 group. From the text: FIG. 3: GSK126 results in significant elevated levels of 6 fatty acids in melanoma B16F10 cells.
Among the metabolites with significant changes, the levels of many fatty acids increased in the GSK126 group. There are five polyunsaturated fatty acids, including α-linolenic acid, DHA, EPA, linoleic acid, and γ-linolenic acid) and one monounsaturated fatty acid, i.e., 10Z-heptadienoic acid (FIG. 3).

For the next data set, the system named is hepatoma SMMC-7721 cells. Put plainly: IncuCyte S3 live-cell proliferation of SMMC-7721 cells. Type of data set: cell-based. The procedure: as §1
(§2) FIG. 6: Lipid-modulating drugs can enhance the inhibitory effect of GSK126 on cancer cells. […] 3 to 5 replicates were established for each group, with *P<0.05, **P<0.01, and ***P<0.001.
(§3) In order to accurately assess the responsiveness of solid tumor cells to EZH2 inhibitors, the effects of GSK126 at different concentrations on the proliferation of melanoma B16F10 cells and hepatoma Huh7 and SMMC-7721 cells were initially detected by IncuCyte S3® Live-Cell Analysis System.

Data set [2] relates to ACLY, FASN, SCD in SMMC7721 cells. Put plainly: RT-qPCR/WB of fatty acid synthesis genes in SMMC7721 cells. The class given is cell-based. The note with it: after GSK126 treatment.
From the text: (§4) FIG. 4: Lipid accumulation in mice after GSK126 treatment. (A) H & E and oil red O staining of the liver tissue sections of the tumor-bearing mice in the control group and the GSK126 treatment group, in which the statistical results of negative or positive staining area were shown on the right (3 replicates per group); (B) TG level in the serum of the tumor-bearing mice in the control group and the GSK126 treatment group (5 replicates per group); (C-D) mRNA (C) and protein (D) levels of the genes related to fatty acid anabolism in the GSK126-treated HCC cells, as detected by RT-qPCR and WB (3 replicates per group). 3 to 5 replicates were established for each group, with *P<0.05, **P<0.01.
as §2
(§5) C57BL/6 mice (6-8 weeks old) were subcutaneously implanted with B16F10 cells and then treated with GSK126. […] Therefore, the expression of fatty acid synthesis-related genes in GSK126-treated hepatocellular carcinoma (HCC) cell lines SMMC7721 and Huh7 was further detected.

In data set [3] the test system is H3K27me3 level in B16F10 cells. Kind of data set: Western blot of H3K27me3 in B16F10 cells. The class given is cell-based. The note with it: GSK126 6 μM, 48 h, H3 internal reference. As for the experimental part: as §1
In another data set the test system is B16F10 cells. Put plainly: Apoptosis of B16F10 cells by flow cytometry and live-cell fluorescence imaging. The class given is cell-based. The note with it: GSK126 10 μM. The procedure: (§6) FIG. 2: Melanoma cells B16F10 are less sensitive to GSK126. (A) Cell scratch assay, showing the effect of GSK126 (10 μM) treatment on the migration capability of B16F10 cells, with 3 replicates per group; (B-C) the effect of GSK126 (10, 13, and 15 μM) on the apoptosis rate of B16F10 cells, as examined by flow cytometry (C) and Annexin V staining assay. 3 replicates were established for each group, with *P<0.05, **P<0.01, and ***P<0.001, and ns for no statistical difference.
(§7) Next, to further validate the effect of GSK126 at 10 μM on melanoma cells B16F10,scratch assay was conducted. […] In addition, to assess the anti-survival effect of GSK126, B16F10 cells were treated by GSK126 at different concentrations for different periods, and the apoptosis rate of the cells was analyzed by flow cytometry (FIG. 2B) and live-cell fluorescence imaging (FIG. 2C).

Data set [4] relates to mouse brain glioma cell line (GL261). Put plainly: IncuCyte S3 live-cell proliferation of GL261 cells. Type of data set: cell-based.
Experimental: 3 to 6 replicates were established for each group, with *P<0.05, **P<0.01, and ***P<0.001, and ns for no statistical difference.
IncuCyte S3® Live-Cell Analysis System was used to monitor and analyze the growth of mouse glioma GL261 cells. • (1) GL-261 cells in logarithmic growth phase were prepared into a single cell suspension, and the cells were counted; • (2) GL261 cells were added into a 96-well plate at a density of 8x10^4 cells/mL, with 4-6 replicate wells per each group; • (3) The 96-well plate was then placed in an incubator for another 12-24 hours, and the plate was refreshed with a culture medium containing the drug at the cell confluence of about 20-30%. GSK126 and fenofibrate (FF) were serially diluted using the medium; • (4) The 96-well plate was then placed in the incubator suitable for the instrument, and detected with IncuCyte S3® Live-Cell Analysis System. Cell growth images of 4 different areas in each well were taken at an interval of 4 h using a 10× objective lens. • (5) The plate was real-time monitored for 48 h, and the cell confluence was determined by defining the cell edge using IncuCyte S3 image analysis software and normalized to the cell confluence at 0 h. […]
The next data set relates to C57BL/6 mice. Kind of data set: Lipid accumulation in B16F10 tumor-bearing C57BL/6 mice. The class given is in vivo. The note with it: B16F10 tumor-bearing C57BL/6 mice treated with GSK126.
From the text: as §4, §5

In data set [5] the test system is Burkitt's lymphoma cells (Daudi). Kind of data set: CCK-8 cell proliferation assay, Daudi. Type of data set: cell-based. The procedure: as §1
The subject of data set [6] is hematologic cancer cell lines. The note with it: most hematologic cancer cell lines; many studies; read-out: IC50 (half-maximal inhibitory concentration); cited from earlier work.
A further data set has as its system melanoma cells B16F10. Put plainly: Cell scratch assay (migration) of B16F10 cells. The note with it: GSK126 10 μM, 36 h of culture, vs control group. The class given is cell-based. The procedure:
as §6, §7

Data set [7] has as its system melanoma B16F10 cells. Put plainly: IncuCyte S3 live-cell proliferation of B16F10 cells. The class given is cell-based. As for the experimental part: as §1
P=0.0108, P=0.0385, Kaplan-Meier survival analysis; (C) effect of telmisartan at different concentrations on the proliferation of U87 cells (left) and U251 cells (right) (3 replicates per group); (D) effect of fenofibrate at different concentrations on the proliferation of B16F10 cells (left) and 4T1 cells (right) (3 replicates per group); (E) FACS quantitative analysis of the percentage of cells positive for EdU (FITC+) staining 48 h after the telmisartan treatment on U87 and U251 cells. Single cells were first gated, followed by FITC+cells. The percentage of FITC+ cells was listed above the corresponding cell population. […]

A further data set has as its system hepatoma Huh7 cells. Put plainly: IncuCyte S3 live-cell proliferation of Huh7 cells. The class given is cell-based. As for the experimental part: as §1, §3
Data set [8] relates to ACLY, FASN, SCD in Huh7 cells. Kind of data set: RT-qPCR/WB of fatty acid synthesis genes in Huh7 cells. The note with it: after GSK126 treatment. The class given is cell-based.
From the text: as §4, §5

The subject of a further data set is U251 cells. Kind of data set: EdU staining with flow cytometry, U251. Type of data set: cell-based, human. The note with it: telmisartan 50 μM, 48 h, 41.44% before treatment. The procedure:
(§8) P=0.0108, P=0.0385, Kaplan-Meier survival analysis; (C) effect of telmisartan at different concentrations on the proliferation of U87 cells (left) and U251 cells (right) (3 replicates per group); (D) effect of fenofibrate at different concentrations on the proliferation of B16F10 cells (left) and 4T1 cells (right) (3 replicates per group); (E) FACS quantitative analysis of the percentage of cells positive for EdU (FITC+) staining 48 h after the telmisartan treatment on U87 and U251 cells. Single cells were first gated, followed by FITC+cells. The percentage of FITC+ cells was listed above the corresponding cell population. 3 replicates were established for each group, with *P<0.05, **P<0.01, ***P<0.001, and ****P<0.0001, and ns for no statistical difference.
(§9) Therefore, telmisartan and fenofibrate were selected to explore whether lipid metabolism-regulating drugs have anti-tumor effects. […] The effect of telmisartan (50 μM) on cell proliferation was further verified by EdU staining.

The next data set concerns human glioma cells U87. Put plainly: Incucyte real-time proliferation of U87 cells. The note with it: telmisartan at different concentrations. Type of data set: cell-based. As for the experimental part: as §8, §9
A further data set concerns U87 cells. Put plainly: EdU staining with flow cytometry, U87. Type of data set: cell-based, human. The note with it: telmisartan 50 μM, 48 h, 24.25% before treatment. As for the experimental part:
as §8, §9
On the technique in general: In flow cytometry, cells or beads pass a laser one at a time.

In the next data set the test system is human glioma cells U251. Put plainly: Incucyte real-time proliferation of U251 cells. The note with it: telmisartan at different concentrations. Type of data set: cell-based. As for the experimental part: as §8, §9
[9] abbreviates: GSK126 at different concentrations (10-20 μM).

For the molecule `CC[C@H](C)n1cc(C)c2c(C(=O)NCc3c(C)cc(C)[nH]c3=O)cc(-c3ccc(N4CCNCC4)nc3)cc21` [GSK126], the “proliferation (CCK-8)” value is “significantly inhibited” in the data set with THP-1 cells; “significantly inhibited” in data set [5] (10 μM GSK126 for 24 h and 48 h). In addition, in the data set with melanoma B16F10 cells [1], the “levels of fatty acids (α-linolenic acid, DHA, EPA, linoleic acid, γ-linolenic acid, 10Z-heptadienoic acid)” value is given as “increased”. Further, the cell proliferation result in the data set on hepatoma SMMC-7721 cells (GSK126 10 μM) is on record as “less effective”; in the data set on hepatoma SMMC-7721 cells (setting [9]) it was “inhibited cell proliferation in a dose-dependent manner”; in the data set with melanoma B16F10 cells [7] (GSK126 10 μM), “less effective”; with melanoma B16F10 cells [7] (setting [9]) it was “inhibited cell proliferation in a dose-dependent manner”; in the data set with hepatoma Huh7 cells (GSK126 10 μM) it was “less effective”; in the data set on hepatoma Huh7 cells (setting [9]) it was “inhibited cell proliferation in a dose-dependent manner”. The “mRNA and protein levels of ACLY, FASN, and SCD” value in data set [2] and in data set [8] was “significantly elevated” in each case. For the same molecule, in data set [3], the H3K27me3 level result is on record as “significantly down-regulated”. Further, in the data set on B16F10 cells, the apoptosis rate result was “limited capability to induce apoptosis”. Also, the “inhibitory effect on cell proliferation” value was “can not achieved” in data set [4] (GSK126 20 μM alone, compared with 40 μM or combination) and “the same as that of the combination” in [4] (GSK126 40 μM, compared with GSK126 20 μM + fenofibrate 10 μM). Also, in the data set on C57BL/6 mice, the “fat vacuoles and lipid deposition in liver tissue sections (H & E and oil red O staining)” value is recorded as “significant increase”. Moreover, the “levels of triglycerides (TG) in blood” value in the data set on C57BL/6 mice is “significantly elevated”. The “sensitivity (CCK-8 proliferation)” value in data set [5] (1 μM GSK126) is recorded as “very sensitive”. In data set [6], the IC50 was less than 1000 nM. The cell migration result in the data set with melanoma cells B16F10 was “did not effectively inhibit cell migration”.

`CCCc1nc2c(C)cc(-c3nc4ccccc4n3C)cc2n1Cc1ccc(-c2ccccc2C(=O)O)cc1` [telmisartan]: the “percentage of EdU+ cells” value in the data set with U251 cells turned out to be 38.78%; in the data set on U87 cells, 21.16%. Moreover, the cell proliferation result in the data set on human glioma cells U87 and with human glioma cells U251 was “inhibit the proliferation” in each case.

The values above are taken from patent US20240398789A1, “PHARMACEUTICAL COMPOSITION FOR ENHANCING ANTI-TUMOR EFFECT OF EZH2 INHIBITOR AND USE THEREOF” (PEKING UNIVERSITY THIRD HOSPITAL, priority 2021, published 2024).
